pIC50: −log10 of the molar value. Activity calls are given as the source filed them. The calls are words filed in the database; no cut-off is given here.
Tests used:
Nucleic Acid [1] = assay: Binding affinity to Poly A-Poly U RNA assessed as change in melting temperature at 0.5 compound to polynucleotide ratio by UV-VIS spectral study; type: nucleic-acid assay
HeLa = assay: Cytotoxicity against human HeLa cells after 72 hrs by MTT assay; type: functional, cell-based
Nucleic Acid [2] = assay: Binding affinity to Poly A-Poly U RNA assessed as ratio of ethidium bromide /compound at which 50% of ethidium bromide fluorescence is quenched by displacement assay; type: nucleic-acid assay
NCI-H460 = assay: Cytotoxicity against human H460 cells after 72 hrs by MTT assay; type: functional, cell-based; conditions: NCI-H460, 72 h
Nucleic Acid [3] = assay: Binding affinity to calf thymus DNA assessed as ratio of ethidium bromide /compound at which 50% of ethidium bromide fluorescence is quenched by displacement assay; type: nucleic-acid assay, Bos taurus
MCF7 = assay: Cytotoxicity against human MCF7 cells after 72 hrs by MTT assay; type: functional, cell-based; conditions: MCF7, 72 h
Nucleic Acid [4] = assay: Binding affinity to calf thymus DNA assessed as change in melting temperature at 0.5 compound to polynucleotide ratio by UV-VIS spectral study; type: nucleic-acid assay; conditions: Bos taurus
Nucleic Acid [5] = assay: Binding affinity to Poly dA-Poly dT DNA assessed as ratio of ethidium bromide /compound at which 50% of ethidium bromide fluorescence is quenched by displacement assay; type: nucleic-acid assay
Nucleic Acid [6] = assay: Binding affinity to Poly A-Poly U RNA assessed as change in melting temperature at 0.3 compound to polynucleotide ratio by UV-VIS spectral study; type: nucleic-acid assay
MOLT-4 = assay: Cytotoxicity against human MOLT4 cells after 72 hrs by MTT assay; type: functional, cell-based; conditions: MOLT-4, 72 h
Nucleic Acid [7] = assay: Binding affinity to Poly dA-Poly dT DNA assessed as change in melting temperature at 0.5 compound to polynucleotide ratio by UV-VIS spectral study; type: nucleic-acid assay
Nucleic Acid [8] = assay: Binding affinity to Poly G-Poly C RNA assessed as ratio of ethidium bromide /compound at which 50% of ethidium bromide fluorescence is quenched by displacement assay; type: nucleic-acid assay
HCT-116 = assay: Cytotoxicity against human HCT116 cells after 72 hrs by MTT assay; type: functional, cell-based; conditions: HCT-116, 72 h
MIA PaCa-2 = assay: Cytotoxicity against human MIAPaCa2 cells after 72 hrs by MTT assay; type: functional, cell-based; conditions: MIA PaCa-2, 72 h
Nucleic Acid [9] = assay: Binding affinity to Poly dA-Poly dT DNA assessed as change in melting temperature at 0.3 compound to polynucleotide ratio by UV-VIS spectral study; type: nucleic-acid assay
HEp-2 = assay: Cytotoxicity against human Hep2 cells after 72 hrs by MTT assay; type: functional, cell-based; conditions: HEp-2, 72 h
Nucleic Acid [10] = assay: Binding affinity to Poly A-Poly U RNA measured at 299 nm wavelength at < 0.3 compound to polynucleotide ratio by circular dichroism spectroscopy; type: nucleic-acid assay
Nucleic Acid [11] = assay: Binding affinity to calf thymus DNA assessed as change in melting temperature at 0.3 ratio compound/polynucleotide by UV-VIS spectral study; type: nucleic-acid assay; conditions: Bos taurus
Nucleic Acid [12] = assay: Binding affinity to Poly A-Poly U RNA measured at 300 to 330 nm wavelength at < 0.3 compound to polynucleotide ratio by circular dichroism spectroscopy; type: nucleic-acid assay
SW-620 = assay: Cytotoxicity against human SW620 cells after 72 hrs by MTT assay; type: functional, cell-based; conditions: SW-620, 72 h
Nucleic Acid [13] = assay: Stabilization of double helix calf thymus DNA by spectroscopy; type: nucleic-acid assay; conditions: Bos taurus
Nucleic Acid [14] = assay: Binding affinity to Poly A-Poly U RNA measured at 303 nm wavelength at < 0.3 compound to polynucleotide ratio by circular dichroism spectroscopy; type: nucleic-acid assay
Nucleic Acid [15] = assay: Binding affinity to double strand calf thymus DNA measured at 300 to 330 nm wavelength at 0.1 compound to polynucleotide ratio by circular dichroism spectroscopy; type: nucleic-acid assay; conditions: Bos taurus
Nucleic Acid [16] = assay: Binding affinity to Poly G-Poly C RNA at 0.2-0.3 compound to polynucleotide ratio by circular dichroism spectroscopy; type: nucleic-acid assay
Nucleic Acid [17] = assay: Binding affinity to double strand calf thymus DNA measured at 300 to 330 nm wavelength at > 0.5 compound to polynucleotide ratio by circular dichroism spectroscopy; type: nucleic-acid assay; conditions: Bos taurus
Nucleic Acid [18] = assay: Binding affinity to Poly G-Poly C RNA at 0.7 compound to polynucleotide ratio by circular dichroism spectroscopy; type: nucleic-acid assay
Nucleic Acid [19] = assay: Binding affinity to Poly G-Poly C RNA at 0.1 compound to polynucleotide ratio by circular dichroism spectroscopy; type: nucleic-acid assay
Nucleic Acid [20] = assay: Binding affinity to double strand Poly dA-Poly dT DNA measured at 300 to 330 nm wavelength at 0.1 compound to polynucleotide ratio by circular dichroism spectroscopy; type: nucleic-acid assay
Nucleic Acid [21] = assay: Binding affinity to double strand Poly dA-Poly dT DNA measured at 300 to 330 nm wavelength at 0.3 compound to polynucleotide ratio by circular dichroism spectroscopy; type: nucleic-acid assay
Nucleic Acid [22] = assay: Binding affinity to Poly A-Poly U RNA measured at 290 nm wavelength at 0.1 compound to polynucleotide ratio by circular dichroism spectroscopy; type: nucleic-acid assay
Nucleic Acid [23] = assay: Binding affinity to double strand Poly dA-Poly dT DNA measured at 300 to 330 nm wavelength at > 0.5 compound to polynucleotide ratio by circular dichroism spectroscopy; type: nucleic-acid assay
Nucleic Acid [24] = assay: Binding affinity to Poly G-Poly C RNA at 0.5 compound to polynucleotide ratio by circular dichroism spectroscopy; type: nucleic-acid assay
Nucleic Acid [25] = assay: Binding affinity to calf thymus DNA by UV-VIS spectral study; type: nucleic-acid assay; conditions: Bos taurus
Nucleic Acid [26] = assay: Binding affinity to Poly A-Poly U RNA measured at 326 nm wavelength at 0.7 compound to polynucleotide ratio by circular dichroism spectroscopy; type: nucleic-acid assay
Nucleic Acid [27] = assay: Binding affinity to double strand calf thymus DNA measured at 300 to 330 nm wavelength at 0.3 compound to polynucleotide ratio by circular dichroism spectroscopy; type: nucleic-acid assay; conditions: Bos taurus
Nucleic Acid [28] = assay: Binding affinity to Poly G-Poly C RNA at < 0.3 compound to polynucleotide ratio by circular dichroism spectroscopy; type: nucleic-acid assay
Nucleic Acid [29] = assay: Binding affinity to Poly A-Poly U RNA at 0.5 compound to polynucleotide ratio by circular dichroism spectroscopy; type: nucleic-acid assay

Row | SMILES | ΔTm (Nucleic Acid [1]) [°C] | pIC50 (HeLa) | IC50 (Nucleic Acid [2]) [molar ratio] | pIC50 (NCI-H460) | IC50 (Nucleic Acid [3]) [molar ratio] | pIC50 (MCF7) | ΔTm (Nucleic Acid [4]) [°C] | IC50 (Nucleic Acid [5]) [molar ratio] | ΔTm (Nucleic Acid [6]) [°C] | pIC50 (MOLT-4) | ΔTm (Nucleic Acid [7]) [°C] | IC50 (Nucleic Acid [8]) [molar ratio] | pIC50 (HCT-116) | pIC50 (MIA PaCa-2) | ΔTm (Nucleic Acid [9]) [°C] | pIC50 (HEp-2) | ΔTm (Nucleic Acid [11]) [°C] | Activity (Nucleic Acid [12]) | pIC50 (SW-620) | further results
1 | CC(C)NC(=N)c1ccc(C(=O)Nc2cccc(NC(=O)c3ccc(C(=N)NC(C)C)cc3)n2)cc1.Cl.Cl | 5.7 | 4.25 | 0.07 | < 4.00 | 0.13 | 4.62 | 14.5 | 2 | 3.7 | < 4.00 | 32.2 | 0.07 | < 4.00 | < 4.00 | 30.5 | 4.42 | 13.1 | Active | < 4.00 | Activity (Nucleic Acid [10]): Active
2 | CC(C)NC(=N)c1ccc(NC(=O)c2ccco2)cc1 | – | 4.22 | – | – | – | < 4.00 | – | – | – | – | – | – | – | < 4.00 | – | < 4.00 | – | – | < 4.00 | Activity (Nucleic Acid [13]): inactive
3 | CC(C)NC(=N)c1ccc(NC(=O)c2cccc(C(=O)Nc3ccc(C(=N)NC(C)C)cc3)n2)cc1.Cl.Cl | 3.7 | 4.28 | 0.17 | < 4.00 | 0.15 | 4.49 | 10.3 | 1.37 | 3.1 | < 4.00 | 25.5 | 0.1 | < 4.00 | < 4.00 | 24.1 | 4.52 | 8.5 | Active | < 4.00 | –
4 | Cl.Cl.N=C(N)c1ccc(NC(=O)c2ccc(C(=O)Nc3ccc(C(=N)N)cc3)o2)cc1 | – | < 4.00 | 1 | – | 0.8 | 5.30 | – | 2.1 | 1.6 | – | – | 0.36 | – | 4.28 | 30.2 | 4.96 | 7.5 | – | < 4.00 | –
5 | N#Cc1ccc(NC(=O)c2ccco2)cc1 | – | 4.33 | – | – | – | 4.49 | – | – | – | – | – | – | – | < 4.00 | – | < 4.00 | – | – | < 4.00 | –
6 | Cl.Cl.N=C(N)c1ccc(C(=O)Nc2cccc(NC(=O)c3ccc(C(=N)N)cc3)n2)cc1 | 18.7 | 4.72 | 0.5 | 4.77 | 0.19 | 4.92 | 15 | 1.7 | 1 | < 4.00 | 30.9 | 0.07 | 4.17 | 4.89 | 29.3 | 4.68 | 13.5 | Active | < 4.00 | Activity (Nucleic Acid [10]): inactive
7 | Cl.Cl.N=C(N)c1ccc(NC(=O)c2cccc(C(=O)Nc3ccc(C(=N)N)cc3)n2)cc1 | – | 4.74 | 0.47 | 4.72 | 0.3 | < 4.00 | – | 1.6 | 1 | < 4.00 | – | 0.25 | < 4.00 | 4.89 | 20.4 | 4.33 | 6.7 | Active | < 4.00 | Activity (Nucleic Acid [14]): Active
8 | CC(C)NC(=N)c1ccc(NC(=O)c2ccc(C(=O)Nc3ccc(C(=N)NC(C)C)cc3)o2)cc1.Cl.Cl | 20.1 | 4.30 | 0.03 | – | 0.36 | 5.40 | 6.6 | 2.23 | 4.5 | – | 31.7 | 0.2 | – | 4.10 | 29.5 | 5.30 | 5.6 | Active | 5.40 | Activity (Nucleic Acid [15]): Active; Activity (Nucleic Acid [16]): Active; Activity (Nucleic Acid [17]): Active; Activity (Nucleic Acid [18]): Active; Activity (Nucleic Acid [19]): Active; Activity (Nucleic Acid [20]): Active; Activity (Nucleic Acid [21]): inactive; Activity (Nucleic Acid [22]): Active; Activity (Nucleic Acid [23]): Active; Activity (Nucleic Acid [24]): Active; Ks (Nucleic Acid [25]): 6.3 ×10⁴ /M; Activity (Nucleic Acid [26]): Active; Activity (Nucleic Acid [27]): inactive; Activity (Nucleic Acid [28]): Active; Activity (Nucleic Acid [29]): Active
9 | N#Cc1ccc(NC(=O)c2ccc(C(=O)Nc3ccc(C#N)cc3)o2)cc1 | – | < 4.00 | – | – | – | < 4.00 | – | – | – | – | – | – | – | < 4.00 | – | < 4.00 | – | – | < 4.00 | –
10 | N=C(N)c1ccc(NC(=O)c2ccco2)cc1 | – | < 4.00 | – | – | – | 4.48 | – | – | – | – | – | – | – | < 4.00 | – | < 4.00 | – | – | < 4.00 | Activity (Nucleic Acid [13]): inactive

Source: ChEMBL document CHEMBL1795293, “Novel pentamidine derivatives: synthesis, anti-tumor properties and polynucleotide-binding activities” (Eur J Med Chem, 2011)
